The text below walks through data of patent US10487046B1, “Dihydroxytyrosol hexamethylene-1,6-dicarbamate having antioxidant activity and a method of preparing the same” (SHAANXI UNIVERSITY OF SCIENCE AND TECHNOLOGY, priority 2019, dated 2019).

The nature of the experiment: DPPH Radical Scavenging Activity Assay. The following applies: for Scavenging Activity (%) (n = 3): DPPH 0.2×10^−4 mol/L in methanol, 30 minutes, 517 nm. The format is biochemical. The source says: DPPH Radical Scavenging Activity Assay 2,2-Diphenyl-1-picryl hydrazyl (DPPH) is an organic compound composed of a stable organic radical. In the DPPH molecule, due to the presence of multiple electron-withdrawing —NO2 and large it bonds of the benzene ring, nitrogen free radical is stabilized. Its methanol solution is purple and has a maximum absorption peak at 517 nm. After the addition of an antioxidant, DPPH captures an electron to be paired with the free electron, and the purple fades and turns into a yellow substance. The absorption at 517 nm disappears, and the degree of fading is quantitatively related to the number of electrons it captures. Based on this principle, a spectrophotometer is used to detect the change of the absorbance of the DPPH radical and the sample solution, and the ability of the sample to provide hydrogen atoms and scavenge free radicals can be measured. (a) Preparation of DPPH solution: measuring exact amount of 2,2-diphenyl-1-picryl hydrazyl (DPPH) and dissolving in methanol to prepare a 0.2×10^−4 mol/L DPPH solution, stored at 0° C. in dark. (b) Preparation of sample solutions: Vc (vitamin C, positive control), dihydroxytyrosol hexamethylene-1,6-dicarbamate, and hydroxytyrosol (control) were dissolved in methanol and diluted in a concentration gradient. Measuring the scavenging activity of the sample solutions: 2 mL of the sample solutions (table 1) at each concentration gradient was taken, 2 mL 0.2×10^−4 mol/L DPPH solution was added, the mixture was mixed and reacted at room temperature in dark for 30 minutes, and methanol was then added to adjust final volume. The absorbance Ai was measured at 517 nm. 2 mL control solution and 2 mL methanol were mixed, and the absorbance Aj was measured. 2 mL DPPH solution and 2 mL methanol were mixed, and the absorbance Ao was measured. (d) The scavenging activity of the sample solution and control solutions is calculated according to the following calculation formula and shown in Table 3 and FIG. 3. Scavenging activity (%)=100×[1−(Ai−Aj)/Ao]
In general terms: The DPPH test is a chemical assay of radical scavenging.

Take `O=C(NCCCCCCNC(=O)OCCc1ccc(O)c(O)c1)OCCc1ccc(O)c(O)c1` [A, dihydroxytyrosol hexamethylene-1,6-dicarbamate]: the “Scavenging Activity (%) (n = 3)” value reads like this: (1.76 ppm) 19.87%; (8.80 ppm) 23.68%; (21.12 ppm) 37.02%; (42.24 ppm) 68.43%; (79.20 ppm) 76.52%; (112.64 ppm) 86.33%. Besides, the “Scavenging Activity (%) (n = 3)” value by setting is: (281.60 ppm) 91.48%; (492.80 ppm) 95.31%; (792.00 ppm) 96.66%; (915.20 ppm) 97.14%. Moreover, the “DPPH radical scavenging activity (in words)” value (1.76 to 915.20 ppm) is “obvious DPPH radical scavenging activity in a concentration dependent manner”. For the same compound, the “DPPH radical scavenging activity compared with hydroxytyrosol (B)” value (at same concentration) is listed as “better DPPH radical scavenging activity than hydroxytyrosol (B)”.
Turning to `OCCc1ccc(O)c(O)c1` [B, hydroxytyrosol], the “Scavenging Activity (%) (n = 3)” value is, setting by setting: (1.76 ppm) 8.69%; (8.80 ppm) 10.97%; (21.12 ppm) 18.10%; (42.24 ppm) 28.89%; (79.20 ppm) 41.44%; (112.64 ppm) 45.83%. Further, the “Scavenging Activity (%) (n = 3)” value runs as follows: (281.60 ppm) 60.58%; (492.80 ppm) 72.81%; (792.00 ppm) 76.35%; (915.20 ppm) 80.61%.
In the case of `O=C1O[C@H]([C@@H](O)CO)C(O)=C1O` [Vc, Vitamin C], the “Scavenging Activity (%) (n = 3)” value is listed as 21.35% (1.76 ppm); 30.80% (8.80 ppm); 87.03% (21.12 ppm); 95.44% (42.24 ppm); 96.06% (79.20 ppm); 97.88% (112.64 ppm). Also, the “Scavenging Activity (%) (n = 3)” value by setting is: (281.60 ppm) 98.41%; (492.80 ppm) 99.04%; (792.00 ppm) 99.42%; (915.20 ppm) 99.16%.
